Experimental data taken from the NIST ThermoML archive (doi:10.1021/acs.jced.8b00854).

Test: xn = mol fraction of the nth substance listed
Conditions: 100 kPa, Liquid, Vibrating tube method

CCCCCCCCOS(=O)(=O)[O-].CCCCn1cc[n+](C)c1 [1-butyl-3-methylimidazolium octyl sulfate] + O
mass density [kg/m3]
Conditions	x1 = 0.1002	x1 = 0.2002	x1 = 0.3004	x1 = 0.4004	x1 = 0.501	x1 = 0.5998	x1 = 0.6988	x1 = 0.8	x1 = 0.9018
293.15 K	1048.11	1060.01	1063.92	1065.86	1066.97	1067.84	1068.5	1069.33	1070.47
303.15 K	1041.72	1052.71	1057.16	1059.15	1060.3	1061.29	1061.97	1062.8	1063.98
313.15 K	1035.13	1046.53	1050.37	1052.42	1053.61	1054.71	1055.42	1056.28	1057.53
323.15 K	1028.37	1039.57	1043.56	1045.67	1046.92	1048.14	1048.87	1049.77	1051.07
333.15 K	1021.44	1032.54	1036.7	1038.91	1040.19	1041.4	1042.35	1043.27	1044.63
343.15 K	1014.33	1025.58	1029.67	1032.07	1033.23	1034.54	1035.66	1036.82	1038.23
